Data on eight molecules can be found in patent US20170081338A1, “SUBSTITUTED HETEROARYL COMPOUNDS AND METHODS OF USE” (Sunshine Lake Pharma Co., Ltd., priority 2015, published 2017).

One data set concerns the target T1, Aurora-A (h) (Homo sapiens, UniProt O14965).
T1 construct: purchased Millipore UK Ltd (contract assay service)
T1 sequence (O14965 1-403): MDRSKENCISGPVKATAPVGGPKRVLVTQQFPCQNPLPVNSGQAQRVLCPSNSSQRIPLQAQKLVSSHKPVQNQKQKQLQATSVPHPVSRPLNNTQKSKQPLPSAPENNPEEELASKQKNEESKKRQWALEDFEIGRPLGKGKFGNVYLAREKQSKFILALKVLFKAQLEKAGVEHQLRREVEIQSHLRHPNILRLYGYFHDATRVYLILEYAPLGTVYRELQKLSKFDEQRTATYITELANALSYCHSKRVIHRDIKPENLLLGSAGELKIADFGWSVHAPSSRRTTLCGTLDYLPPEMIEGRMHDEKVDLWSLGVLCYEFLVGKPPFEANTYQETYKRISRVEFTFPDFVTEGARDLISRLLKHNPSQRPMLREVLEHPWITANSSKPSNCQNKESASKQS
Description: Aurora-A (h) kinase assay. It is filed as biochemical. How it is done:
The above assay procedure can be used to determine the IC50 for inhibition and/or the inhibition constant, Ki. The IC50 is defined as the concentration of compound required to reduce the enzyme activity by 50% under the condition of the assay. The IC50 value is estimated by preparing a 10 point curve using a 1/2 log dilution series (for example, a typical curve may be prepared using the following compound concentrations: 3 μM, 1 μM, 0.3 μM, 0.1 μM, 0.03 μM, 0.01 μM, 0.003 μM, 0.001 μM, 0.0003 μM and 0 μM).
Aurora-A (h) is incubated with 8 mM MOPS pH 7.0, 0.2 mM EDTA, 200 μM LRRASLG (Kemptide), 10 mM MgAcetate and [γ-^33P-ATP] (specific activity approx. 500 cpm/pmol, concentration as required). The reaction is initiated by the addition of the MgATP mix. After incubation for 40 minutes at room temperature, the reaction is stopped by the addition of 3% phosphoric acid solution. 10 μL of the reaction is then spotted onto a P30 filtermat and washed three times for 5 minutes in 75 mM phosphoric acid and once in methanol prior to drying and scintillation counting.
The kinase assays described herein were performed at Millipore UK Ltd, Dundee Technology Park, Dundee DD2 1SW, UK.

Data set [1] in a line: Compound stability in human liver microsomes. Conditions: pH 7.4; for half-life at 5 μM: human liver microsomes 0.5 mg protein/mL, compound 5 μM, NADPH, 37° C., read-out: Human T1/2; for CLint scaled at 5 μM: human liver microsomes, in vivo CLint extrapolated. It is filed as in vitro ADME. As for the experimental part: (§1) Human or rat liver microsomes incubations were conducted in duplicate in polypropylene tubes. The typical incubation mixtures consisted of human or rat liver microsomes (0.5 mg protein/mL), compounds of interest (5 μM) and NADPH (1.0 mM) in a total volume of 200 μL potassium phosphate buffer (PBS, 100 mM, pH 7.4). Compounds were dissolved in DMSO and diluted with PBS such that the final concentration of DMSO was 0.05%. The enzymatic reactions were commenced with the addition of protein after a 3-min preincubation and incubated in a water bath open to the air at 37° C. Reactions were terminated at various time points (0, 5, 10, 15, 30, 60 min) by adding equal volume of ice-cold acetonitrile. The samples were stored at −80° C. until LC/MS/MS assays.
(§2) The concentrations of compounds in the incubation mixtures of human or rat liver microsomes were determined by a LC/MS/MS method. The ranges of the linearity in the concentration range were determined for each tested compounds.
(§3) A parallel incubation was performed using denatured microsomes as the negative control, and reactions were terminated at various time points (0, 15, 60 min) after incubation at 37° C.
(§4) Dextromethorphan (70 μM) was selected as the positive control, and reactions were terminated at various time points (0, 5, 10, 15, 30, 60 min) after incubation at 37° C. Both positive and negative control samples were included in each assay to ensure the integrity of the microsomal incubation system.
(§5) The concentrations of compounds in human or rat liver microsome incubations were plotted as a percentage of the relevant zero time point control for each reaction. The in vivo CLint were extrapolated (ref.: Naritomi, Y.; Terashita, S.; Kimura, S.; Suzuki, A.; Kagayama, A.; and Sugiyama, Y.; Prediction of human hepatic clearance from in vivo animal experiments and in vitro metabolic studies with liver microsomes from animals and humans. Drug Metab. Dispos., 2001, 29: 1316-1324).

Data set [2] in a line: Compound stability in rat liver microsomes. The data set is classed as in vitro ADME. The settings on record: pH 7.4; for half-life at 5 μM: rat liver microsomes 0.5 mg protein/mL, compound 5 μM, NADPH, 37° C., read-out: Rat T1/2; for CLint scaled at 5 μM: rat liver microsomes, in vivo CLint extrapolated. As for the experimental part:
as §1, §2, §3, §4, §5

A short description of data set [3]: Pharmacokinetics after intravenous and oral administration in rats. The data set is classed as in vivo. The settings on record: for Clearance (CL) after iv dosing / AUC(0-t) / half-life / Vd: dose 1 mg/kg, iv dosing; for F: oral bioavailability; for AUC(0-t) / half-life / Vd: rat, plasma; for Vd: read-out: Vss. How it is done:
The LC/MS/MS system used in the analysis consists of an Agilent 1200 Series vacuum degasser, binary pump, well-plate autosampler, thermostatted column compartment, the Agilent G6430 Triple Quadrupole Mass Spectrometer with an electrosprayionization (ESI) source. Quantitative analysis was carried out using MRM mode. The parameters for MRM transitions are in the Table A.
An Agilent XDB-C18, 2.1×30 mm, 3.5 μM column was used for the analysis. 5 μL of the samples were injected. Analysis condition: The mobile phase was 0.1% formic acid in water (A) and 0.1% formic acid in methanol (B). The flow rate was 0.4 mL/min. And the gradient of Mobile phase was in the Table B.
Alternatively, an Agilent 6330 series LC/MS/MS spectrometer equipped with G1312A binary pumps, a G1367A autosampler and a G1314C UV detector were used in the analysis. An ESI source was used on the LC/MS/MS spectrometer. The analysis was done in positive ion mode as appropriate and the MRM transition for each analyte was optimized using standard solution. A Capcell MP-C18 100×4.6 mm I.D., […] column (Phenomenex, Torrance, Calif., USA) was used during the analysis. The mobile phase was 5 mM ammonia acetate, 0.1% MeOH in water (A): 5 mM ammonia acetate, 0.1% MeOH in acetonitrile (B) (70/30, v/v). The flow rate was 0.6 mL/min. Column was maintained at ambient temperature. 20 μL of the samples were injected.
The compounds disclosed herein are assessed in pharmacokinetic studies in mice, rats, dogs or monkeys. The compounds are administered as a water solution, 2% HPMC+1% TWEEN®80 in water solution, 5% DMSO+5% solutol in saline, 4% MC suspension or capsule. For the intravenous administration, the animals are generally given at 0.5, 1 or 2 mg/kg dose. For the oral (p.o.) dosing, mice and rats are generally given 0.5, 1, 5 or 10 mg/kg dose, and dogs and monkeys are generally given 10 mg/kg dose. The blood samples (0.3 mL) are drawn at 0.25, 0.5, 1.0, 2.0, 3.0, 4.0, 6.0, 8.0, 12 and 24 h time points or 0.083, 0.25, 0.5, 1.0, 2.0, 4.0, 6.0, 8.0 and 24 h time points and centrifuged at 3,000 or 4000 rpm for 2 to 10 min. The plasma solutions are collected, and stored at −20° C. or −70° C. until analyzed by LC/MS/MS as described above.

As to `Cn1cc(Nc2ncc(Cl)c(N[C@@H]3COC4C3OC[C@@H]4NS(=O)(=O)NC3CCOC3)n2)cn1` (stereo partly drawn) [Ex. 29, 5-chloro-N-(1-methyl-1H-pyrazol-4-yl)-4-(((3R,6S)-6-((N-(tetrahydrofuran-3-yl)sulfamoyl)amino)hexahydrofuro[3,2-b]furan-3-yl)amino)pyrimidin-2-amine], the 50% inhibitory concentration (IC50) against Aurora-A (h) is 16 nM. That is a double-digit nanomolar value.
Regarding `CC(CS(=O)(=O)N[C@H]1COC2C1OC[C@H]2Nc1nc(Nc2cnn(C)c2)ncc1Cl)C(F)F` (stereo partly drawn) [Ex. 42, N-((3S,6R)-6-((5-chloro-2-((1-methyl-1H-pyrazol-4-yl)amino)pyrimidin-4-yl)amino)hexahydrofuro[3,2-b]furan-3-yl)-3,3-difluoro-2-methylpropane-1-sulfonamide], in data set [1], the half-life at 5 μM turned out to be 29.3 min and the CLint scaled at 5 μM was 59.3 mL/min/kg. Besides, in data set [2], the half-life at 5 μM is 29.6 min and the CLint scaled at 5 μM was 83.9 mL/min/kg. In data set [3], the “Clearance (CL) after iv dosing” value is 32.5 mL/min/kg, the F is given as 33.1%, the AUC(0-t) came to 517 ng·h/mL and the half-life was 46.2 min. Moreover, in data set [3], the Vd amounted to 1.37 L/kg.
On to `Cn1cc(Nc2ncc(Cl)c(N[C@@H]3COC4C3OC[C@@H]4N3CCCS3(=O)=O)n2)cn1` (stereo partly drawn) [Ex. 12, 2-((3S,6R)-6-((5-chloro-2-((1-methyl-1H-pyrazol-4-yl)amino)pyrimidin-4-yl)amino)hexahydrofuro[3,2-b]furan-3-yl)isothiazolidine 1,1-dioxide], for which, in data set [1], the half-life at 5 μM turned out to be 272 min and the CLint scaled at 5 μM was 6.39 mL/min/kg. In data set [2], the half-life at 5 μM came out at 105 min and the intrinsic clearance (CLint scaled) at 5 μM was 23.7 mL/min/kg. Besides, in data set [3], the “Clearance (CL) after iv dosing” value came to 59.8 mL/min/kg, the F was found to be 75.2%, the AUC(0-t) was determined as 363 ng·h/mL and the half-life was 40.2 min. In data set [3], the Vd came out at 1.98 L/kg.
Take `CC(CF)CS(=O)(=O)N[C@H]1COC2C1OC[C@H]2Nc1nc(Nc2cnn(C)c2)ncc1Cl` (stereo partly drawn) [Ex. 37, N-((3S,6R)-6-((5-chloro-2-((1-methyl-1H-pyrazol-4-yl)amino)pyrimidin-4-yl)amino)hexahydrofuro[3,2-b]furan-3-yl)-3-fluoro-2-methylpropane-1-sulfonamide]: in data set [1], the half-life at 5 μM was found to be 26.6 min and the CLint scaled at 5 μM was 65.5 mL/min/kg. In data set [2], the half-life at 5 μM stood at 34.9 min and the CLint scaled at 5 μM is 71.1 mL/min/kg. In addition, in data set [3], the “Clearance (CL) after iv dosing” value stood at 34.2 mL/min/kg, the F came out at 69.5%, the AUC(0-t) stood at 491 ng·h/mL and the half-life was 32.4 min. In addition, the Vd in data set [3] is 0.86 L/kg.
As for `Cn1cc(Nc2ncc(Cl)c(N[C@@H]3COC4C3OC[C@@H]4N3CCCC3=O)n2)cn1` (stereo partly drawn) [Ex. 22, 1-((3S,6R)-6-((5-chloro-2-((1-methyl-1H-pyrazol-4-yl)amino)pyrimidin-4-yl)amino)hexahydrofuro[3,2-b]furan-3-yl)pyrrolidin-2-one], in data set [1], the half-life at 5 μM is 289 min and the CLint scaled at 5 μM is 6.01 mL/min/kg. Besides, in data set [2], the half-life at 5 μM was 104 min and the CLint scaled at 5 μM is 23.8 mL/min/kg. Also, in data set [3], the “Clearance (CL) after iv dosing” value came out at 10.2 mL/min/kg, the F was determined as 96.9%, the AUC(0-t) is 1630 ng·h/mL and the half-life is 65.4 min. The Vd in data set [3] turned out to be 1.06 L/kg.
As to `Cn1cc(Nc2ncc(Cl)c(N[C@@H]3COC4C3OC[C@@H]4NS(=O)(=O)C(C)(C)C)n2)cn1` (stereo partly drawn) [Ex. 24, N-((3S,6R)-6-((5-chloro-2-((1-methyl-1H-pyrazol-4-yl)amino)pyrimidin-4-yl)amino)hexahydrofuro[3,2-b]furan-3-yl)-2-methylpropane-2-sulfonamide], in data set [1], the half-life at 5 μM amounted to 25.6 min and the CLint scaled at 5 μM is 68 mL/min/kg. In addition, in data set [2], the half-life at 5 μM is 78.6 min and the CLint scaled at 5 μM is 31.6 mL/min/kg. For the same molecule, in data set [3], the “Clearance (CL) after iv dosing” value was 29.3 mL/min/kg, the F was determined as 127.3%, the AUC(0-t) is 567 ng·h/mL and the half-life was 42 min. In data set [3], the Vd was 1.4 L/kg.
Regarding `Cn1cc(Nc2ncc(Cl)c(N[C@@H]3COC4C3OC[C@@H]4NS(=O)(=O)CC(C)(F)F)n2)cn1` (stereo partly drawn) [Ex. 38, N-((3S,6R)-6-((5-chloro-2-((1-methyl-1H-pyrazol-4-yl)amino)pyrimidin-4-yl)amino)hexahydrofuro[3,2-b]furan-3-yl)-2,2-difluoropropane-1-sulfonamide], in data set [1], the half-life at 5 μM came to 65.6 min and the CLint scaled at 5 μM was 26.5 mL/min/kg. Also, in data set [2], the half-life at 5 μM was 47.7 min and the CLint scaled at 5 μM is 52.1 mL/min/kg. In data set [3], the “Clearance (CL) after iv dosing” value was 17 mL/min/kg, the F came to 106.6%, the AUC(0-t) is 982 ng·h/mL and the half-life is 32.4 min. Further, the Vd in data set [3] was 0.69 L/kg.
`Cn1cc(Nc2ncc(Cl)c(N[C@@H]3COC4C3OC[C@@H]4NS(=O)(=O)N3CCOCC3)n2)cn1` (stereo partly drawn) [Ex. 11, N-((3S,6R)-6-((5-chloro-2-((1-methyl-1H-pyrazol-4-yl)amino)pyrimidin-4-yl)amino)hexahydrofuro[3,2-b]furan-3-yl)morpholine-4-sulfonamide]: in data set [1], the half-life at 5 μM is 44.1 min and the intrinsic metabolic clearance (CLint scaled) at 5 μM is 39.4 mL/min/kg. Moreover, in data set [2], the half-life at 5 μM was determined as 121 min and the CLint scaled at 5 μM is 20.6 mL/min/kg. Besides, in data set [3], the F was found to be 40.0%, the AUC(0-t) was determined as 542 ng·h/mL, the half-life is 335 min and the Vd was 23.5 L/kg.

A word on the IC50: it is the concentration that gives 50% inhibition. A low value points to inhibition by little substance. Broadly, the CLint scaled is the rate of metabolic loss divided by the concentration. By AUC(0-t) is commonly meant exposure summed from dosing to a finite time, without extrapolation to infinity. Read a high AUC(0-t) as more exposure.
